Where “and” joins values, the source holds several entries; their conditions need not be identical. Equal entries are not always repeated.
Columns and labels:
[1] = target: T1, Radiation Leukemia Virus reverse transcriptase (Radiation murine leukemia virus, UniProt P11227); assay: Radiation Leukemia Virus reverse transcriptase assay, supernatants from infected AQR cells (Examples 4 and 9); type: biochemical; details: Table VIII; for CPM: replicate; for inhibition at 50 ng / inhibition at 0.0001 mg / inhibition at 0.0005 mg / inhibition at 0.001 mg / inhibition at 0.002 mg / inhibition at 0.005 mg / inhibition at 0.01 mg: 0.5 h; for inhibition at 0.01 mg: read-out: Average % Inhibition
T1 construct: the reverse transcriptase of Radiation Leukemia Virus; endogenous in cells
Description: (§1) Supernatants (10 ml/tube) from B10.T(6R) cells (Meruelo et al. J. Exp. Med. 147: 470-487, 1978) chronically infected with Radiation Leukemia Virus (RadLV) were obtained by centrifugation of cells in culture at 4° C., 3500 rpm for 15 minutes. The top 2/3 of the supernatant were removed and aliquots were incubated for 30 minutes on ice with the indicated amounts of hypericin or protohypericin. […] Thereafter, supernatants were centrifuged at 100,000×g using a TI70 rotor (Beckman Instruments) for 1 hour at 4° C. The pellet was […] and analyzed for reverse transcriptase activity as follows.
(§2) The reverse transcriptase assay was performed in a volume of 100 microliters containing the following components:
The antiviral activity of HHA was tested using AQR (Bach and Meruelo, J. Exp. Med. 160:270-285, 1984) cells chronically infected with Radiation Leukemia Virus in the reverse transcriptase assay as described in Example 3 above.
The assays were conducted using the same procedure as in Example 3 above, using supernatants from infected AQR cells.

Friend Virus = assay: Friend Virus-induced splenomegaly, WIS compounds (Example 8); type: in vivo, mice; details: for Average % Inhibition / Average Spleen Weight / Actual Spleen Weight: Table VII; for Actual Spleen Weight: single animal
Description: The effects of compositions according to the present invention on the increase in spleen size (splenomegaly) of BALB/c mice (Jackson Labs, Bar Harbor, ME) was examined. In these experiments, the virus (10^6 focus forming units--FFU) was inoculated intravenously and 100 micrograms of the compounds indicated in Table II were administered to the mice intraperitoneally 24 hours later. Each compound was administered once to two mice. The animals were sacrificed ten days later and their spleens weighed.
As used in Table II (and subsequent Tables of this Example l(a) and (b), "average percent inhibition" is calculated as follows: [formula] wherein "ASWNC" designates "average spleen weight of negative control"; "ASWE" designates "average spleen weight of experimental (treated) subject"; and "ASWPC" designates "average spleen weight of positive control". Average spleen weight is the numerical average of spleen weights of each experimental group (in Table II each such group includes two members).
The AAB compounds whose synthesis is described above were assayed for antiviral activity. WIS-2, -3, -4, -5 and -6 were tested to determine their biological effects on Friend Virus-induced splenomegaly using the procedure and technique set forth in Example 1 above. The assay results (three mice per group were tested each at different concentrationss of the active composition except for the PBS-negative control wherein two animals per group were used) are reported in Table VII below.

retroviruses (virions) = assay: Direct inactivation of retroviruses (virions) in vitro (Example 10); type: biochemical, Radiation Leukemia Virus; details: Table IX
Description: as §1, §2
(§3) (1) Direct inactivation of retroviruses in vitro, performed as in Example 3 above;
(§4) The results presented above in Table IX are presented as EC50 concentrations. These are the effective concentrations which inhibit 50% of the viruses in micromolar concentrations.

Friend Leukemia Virus [2] = assay: In vivo inhibition of Friend Leukemia Virus splenomegaly, intravenous 1-2 hours post infection (Example 10); set-up: species or system mice; details: Mus musculus, read-out: EC50 for FV-induced splenomegaly
Description: (§5) (3) In vivo inhibition of Friend Leukemia Virus Splenomegaly performed as described in Example 1 above except that the compounds were administered intravenously 1-2 hours post infection.
as §4

retroviruses = assay: Comparison over two in vitro and one in vivo biological assays (Example 10)
Description: In order to investigate the structural features of hypericin which are essential for antiretroviral activity, numerous analogs and precursors of hypericin were examined for activity in two in vitro and one in vivo biological assay.
as §3, §5

Friend Leukemia Virus [3] = assay: Inhibition of Friend Leukemia Virus-induced splenomegaly in mice, compounds intraperitoneally 24 hours after virus (Example 1(a)); type: in vivo, BALB/c mice; details: for Spleen weight: single animal, listed as PS
Summary of the method: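 BALB/c mice inoculated i.v. with 10^6 FFU Friend virus (spleen homogenate); compounds given i.p. 24 h later at 100 μg once, or 50, 100, 200 μg or 2×100 μg (second dose 24–48 h after first), two mice per group. Spleens weighed at day 10; percent inhibition from average spleen weights relative to negative and positive controls.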

Friend Leukemia Virus [4] = assay: Intravenous co-administration of pseudohypericin with Friend Leukemia Virus, splenomegaly; type: in vivo, mouse; details: for Spleen Weights: single animal, listed as PS
Description: A different experimental design was used involving the simultaneous intravenous co-administration of Ps with the FV complex. In this case, the viral preparation was mixed with Ps at various concentrations and the mixture was injected into the mouse tail vein in a final volume of 0.5 ml. The mice were sacrificed ten days later, their spleens weighed, and the level of inhibition of splenomegaly subsequently determined.
The effect of intravenous co-administration of pseudohypericin (diluted in PBS with 1% EtOH) with FV, on viral-induced splenomegaly.

[5] = FV 2 × 10^5 FFU, PS 80 mcg/mouse
[6] = FV 2 × 10^5 FFU, PS 80 mcg/mouse 2 inject
[7] = FV 10^6 FFU, PS 80 mcg/mouse 2 injections
[8] = FV + PS 5 mcg i.v. co-administration
[9] = FV + PS 20 mcg i.v. co-administration
[10] = FV + PS 50 mcg i.v. co-administration

CC(=O)Oc1cc(C)c2c3c(C)cc(OC(C)=O)c4cc5c(OC(C)=O)cc(OC(C)=O)c6c7c(OC(C)=O)cc(OC(C)=O)c8cc1c2c(c87)c(c43)c56 [WIS-4, desoxohypericinhexaacetate]
Average CPM ([1]; 0.05 micrograms): 164,212 CPM
CPM ([1]; 0.05 micrograms): 156,830 CPM and 171,594 CPM
Average CPM ([1]; 0.1 micrograms): 144,512 CPM
CPM ([1]; 0.1 micrograms): 100,504 CPM and 188,520 CPM
Average CPM ([1]; 0.5 micrograms): 208,119 CPM
CPM ([1]; 0.5 micrograms): 196,740 CPM and 219,498 CPM
Average CPM ([1]; 1 microgram): 180,180 CPM
CPM ([1]; 1 microgram): 179,312 CPM and 181,048 CPM
Average CPM ([1]; 2 micrograms): 237,365 CPM
CPM ([1]; 2 micrograms): 236,374 CPM and 238,356 CPM
Average CPM ([1]; 5 micrograms): 164,440 CPM
CPM ([1]; 5 micrograms): 164,780 CPM and 164,100 CPM
Average CPM ([1]; 10 micrograms): 184,852 CPM
CPM ([1]; 10 micrograms): 186,168 CPM and 183,536 CPM
inhibition at 50 ng ([1]; 0.05 micrograms): 79.9%
inhibition at 0.0001 mg ([1]; 0.1 micrograms): 82.3%
inhibition at 0.0005 mg ([1]; 0.5 micrograms): 74.5%
inhibition at 0.001 mg ([1]; 1 microgram): 77.9%
inhibition at 0.002 mg ([1]; 2 micrograms): 70.9%
inhibition at 0.005 mg ([1]; 5 micrograms): 79.9%
inhibition at 0.01 mg ([1]; 10 micrograms): 77.4%
Average % Inhibition (Friend Virus; 1 microgram): 14.9%
Average Spleen Weight (Friend Virus; 1 microgram): 0.8480
Actual Spleen Weight (Friend Virus; 1 microgram): 0.7790 and 0.8852 and 0.8797
Average % Inhibition (Friend Virus; 10 micrograms): 22.0%
Average Spleen Weight (Friend Virus; 10 micrograms): 0.7921
Actual Spleen Weight (Friend Virus; 10 micrograms): 0.8118 and 0.8625 and 0.7019
Average % Inhibition (Friend Virus; 50 micrograms): 28.8%
Average Spleen Weight (Friend Virus; 50 micrograms): 0.7384
Actual Spleen Weight (Friend Virus; 50 micrograms): 0.7368 and 0.7744 and 0.7041
Average % Inhibition (Friend Virus; 150 micrograms): 46.1%
Average Spleen Weight (Friend Virus; 150 micrograms): 0.6012
Actual Spleen Weight (Friend Virus; 150 micrograms): 0.6214 and 0.6663 and 0.5159
antiviral activity in splenomegaly assay (Friend Virus; Example 8): most active compounds of the group in the splenomegaly assay
EC50 (retroviruses (virions)): 6.9 µM
EC50 (Friend Leukemia Virus [2]): > 242 µM
loss of antiviral activity relative to parent (retroviruses; Example 10, structural comparison): loss of activity

Cc1cc(O)c2c(=O)c3c(O)cc(O)c4c5c(O)cc(O)c6c(=O)c7c(O)cc(CO)c8c1c2c(c34)c(c65)c78 [pseudohypericin, Pseudohypericin]
median inhibition in spleen enlargement (Friend Leukemia Virus [3]; 80 micrograms per mouse single injection, 2×10^5 FFU): 89.6%
inhibition of FV-induced splenomegaly / anti-retroviral activity (Friend Leukemia Virus [3]; Example 1(a)): marked decrease in the spleen enlargement capacity of the Friend Leukemia Virus
% Inhib (Friend Leukemia Virus [3]; [5]): 81.15%
Net change from control (Friend Leukemia Virus [3]; [5]): 0.1292
Spleen weight, mean (x) (Friend Leukemia Virus [3]; [5]): 0.3138 ± 0.1197 gms
% Inhib (Friend Leukemia Virus [3]; [6]): 89.58%
Net change from control (Friend Leukemia Virus [3]; [6]): 0.0714
Spleen weight, mean (x) (Friend Leukemia Virus [3]; [6]): 0.2560 ± 0.0723 gms
Spleen weight (Friend Leukemia Virus [3]; [6]): 0.3457 gms and 0.2784 gms and 0.2208 gms and 0.1791 gms
Spleen weight (Friend Leukemia Virus [3]; [5]): 0.4924 gms and 0.2469 gms and 0.2722 gms and 0.2438 gms
% Inhib (Friend Leukemia Virus [3]; FV 10^6 FFU, PS 80 mcg/mouse): 90.70%
Net change from control (Friend Leukemia Virus [3]; FV 10^6 FFU, PS 80 mcg/mouse): 0.0841
Spleen weight, mean (x) (Friend Leukemia Virus [3]; FV 10^6 FFU, PS 80 mcg/mouse): 0.2687 ± 0.0621 gms
% Inhib (Friend Leukemia Virus [3]; [7]): 93.82%
Net change from control (Friend Leukemia Virus [3]; [7]): 0.0558
Spleen weight, mean (x) (Friend Leukemia Virus [3]; [7]): 0.2404 ± 0.0482 gms
Spleen weight (Friend Leukemia Virus [3]; [7]): 0.2831 gms and 0.2761 gms and 0.2215 gms and 0.1810 gms
Spleen weight (Friend Leukemia Virus [3]; FV 10^6 FFU, PS 80 mcg/mouse): 0.2457 gms and 0.3400 gms and 0.2938 gms and 0.1956 gms
median inhibition of splenomegaly (Friend Leukemia Virus [3]; single injection of 80 micrograms per mouse): 93.8%
median inhibition of splenomegaly (Friend Leukemia Virus [3]; two daily consecutive injections of 80 micrograms per mouse, 2×10^5 FFU): 81.7%
median inhibition of splenomegaly (Friend Leukemia Virus [3]; two daily consecutive injections of 80 micrograms per mouse, 10^6 FFU): 90.7%
Spleen Weights, mean (x) (Friend Leukemia Virus [4]; [8]): 0.3862 grams
Spleen Weights (Friend Leukemia Virus [4]; [8]): 0.3425 grams and 0.3766 grams and 0.4005 grams and 0.4255 grams
% Inhibition (Friend Leukemia Virus [4]; FV + PS 5 mcg per mouse i.v. co-administration): 75.44%
Spleen Weights, mean (x) (Friend Leukemia Virus [4]; [9]): 0.1614 grams
Spleen Weights (Friend Leukemia Virus [4]; [9]): 0.1655 grams and 0.1426 grams and 0.1433 grams and 0.1966 grams
% Inhibition (Friend Leukemia Virus [4]; FV + PS 20 mcg per mouse i.v. co-administration): 100%
Spleen Weights, mean (x) (Friend Leukemia Virus [4]; [10]): 0.1572 grams
Spleen Weights (Friend Leukemia Virus [4]; [10]): 0.1830 grams and 0.1674 grams and 0.1422 grams and 0.1365 grams
% Inhibition (Friend Leukemia Virus [4]; FV + PS 50 mcg per mouse i.v. co-administration): 100%
EC50 (Friend Leukemia Virus [2]): 3.8 µM
activity across assays (retroviruses; Example 10): high degree of activity in a more than one assay

CC(=O)Oc1cc(O)c2c(=O)c3c(O)cc(C)c4c5c(C)cc(O)c6c(=O)c7c(O)cc(OC(C)=O)c8c1c2c(c34)c(c65)c78 [WIS-6, hypericin diacetate]
Average CPM ([1]; 0.05 micrograms): 190,506 CPM
CPM ([1]; 0.05 micrograms): 195,374 CPM and 185,638 CPM
Average CPM ([1]; 0.1 micrograms): 389,388 CPM
CPM ([1]; 0.1 micrograms): 188,378 CPM and 590,398 CPM
Average CPM ([1]; 0.5 micrograms): 161,570 CPM
CPM ([1]; 0.5 micrograms): 116,590 CPM and 206,550 CPM
Average CPM ([1]; 1 microgram): 153,363 CPM
CPM ([1]; 1 microgram): 124,996 CPM and 181,730 CPM
Average CPM ([1]; 2 micrograms): 94,199 CPM
CPM ([1]; 2 micrograms): 96,562 CPM and 91,836 CPM
Average CPM ([1]; 5 micrograms): 90,273 CPM
CPM ([1]; 5 micrograms): 86,850 CPM and 93,696 CPM
Average CPM ([1]; 10 micrograms): 146,588 CPM
CPM ([1]; 10 micrograms): 178,026 CPM and 115,150 CPM
inhibition at 50 ng ([1]; 0.05 micrograms): 76.7%
inhibition at 0.0001 mg ([1]; 0.1 micrograms): 52.3%
inhibition at 0.0005 mg ([1]; 0.5 micrograms): 80.2%
inhibition at 0.001 mg ([1]; 1 microgram): 81.2%
inhibition at 0.002 mg ([1]; 2 micrograms): 88.5%
inhibition at 0.005 mg ([1]; 5 micrograms): 88.9%
inhibition at 0.01 mg ([1]; 10 micrograms): 82%
Average % Inhibition (Friend Virus; 1 microgram): 18.4%
Average Spleen Weight (Friend Virus; 1 microgram): 0.8210
Actual Spleen Weight (Friend Virus; 1 microgram): 0.9291 and 0.8017 and 0.7323
Average % Inhibition (Friend Virus; 10 micrograms): 9.2%
Average Spleen Weight (Friend Virus; 10 micrograms): 0.8930
Actual Spleen Weight (Friend Virus; 10 micrograms): 0.8387 and 0.8529 and 0.9874
Average % Inhibition (Friend Virus; 50 micrograms): 3.2%
Average Spleen Weight (Friend Virus; 50 micrograms): 0.9407
Actual Spleen Weight (Friend Virus; 50 micrograms): 0.9012 and 0.9969 and 0.9241
Average % Inhibition (Friend Virus; 150 micrograms): 18.6%
Average Spleen Weight (Friend Virus; 150 micrograms): 0.8187
Actual Spleen Weight (Friend Virus; 150 micrograms): 0.7921 and 0.8013 and 0.8626
EC50 (retroviruses (virions)): 0.85 µM
EC50 (Friend Leukemia Virus [2]): > 255 µM

Reference: patent US6150414A, “Compositions and methods for treating viral infections” (priority 1992, dated 2000)
